Results published in patent US6013809A, “Substituted heterocyclic benzocycloalkenes and the use thereof as substances having an analgesic effect” (Gruenenthal GmbH, priority 1997, dated 2000).
Where a name gives a salt, the structure may show the parent alone. Read-outs that look alike come from different tables or passages of the source.

Experiments:
δ-opiate receptor = molecular target: T1, δ-opiate receptor (Rattus norvegicus, UniProt P33533); test: δ-opiate receptor binding, displacement of (^3H)-2-D-Ala-deltorphin II on rat brain homogenates; design: species or system rat (male Wistar rats)
T1 construct: freshly prepared rat brain was homogenised in 50 mmoles/l Tris-HCl (pH 7.4); from tissue; host or cells: rat brain without cerebellum, pons and medulla oblongata, male Wistar rats; membrane homogenate
T1 sequence (P33533 whole entry): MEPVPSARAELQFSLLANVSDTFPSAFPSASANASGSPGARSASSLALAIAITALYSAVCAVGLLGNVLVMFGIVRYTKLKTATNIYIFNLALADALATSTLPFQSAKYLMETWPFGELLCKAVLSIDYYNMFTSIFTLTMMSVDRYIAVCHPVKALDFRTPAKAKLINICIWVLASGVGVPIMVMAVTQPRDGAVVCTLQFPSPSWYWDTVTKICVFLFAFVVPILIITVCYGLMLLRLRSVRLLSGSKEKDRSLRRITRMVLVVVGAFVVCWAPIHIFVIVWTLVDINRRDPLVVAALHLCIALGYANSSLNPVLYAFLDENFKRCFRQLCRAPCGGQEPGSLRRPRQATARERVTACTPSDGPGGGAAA
Description: Investigations for determining the affinity of compounds of formula I according to the invention for the δ-opiate receptor, which is a crucial prerequisite for analgesic properties, were performed on […] homogenates (rat brain homogenates, without the cerebellum, pons and medulla oblongata, from male Wistar rats). Selected compounds of formula I were used for the detection of δ-opiate receptor properties.
For this purpose, freshly prepared rat brain was homogenised in 50 mmoles/l Tris-HCl (pH 7.4) whilst cooling in ice, and was centrifuged for 10 minutes at 5000 g. After decanting and discarding the supernatant liquor, and renewed take-up and homogenisation of the membrane sediment in 50 mmoles/l Tris-HCl (pH 7.4), the homogenate was subsequently centrifuged for 20 minutes at 20,000 g and 4° C. This washing step was repeated once more. Thereafter, the supernatant liquor was decanted and the membrane sediment was homogenised in cold 50 mmoles/l Tris-HCl, 20% glycerol (w/v), 0.01% bacitracin (w/v) (pH 7.4) and was frozen in aliquots until testing was performed.
For the receptor binding tests, the aliquots were thawed out and diluted 1:10 with the binding test buffer.
The buffer used in the binding test comprised 50 mmoles/l Tris-HCl, 5 mmoles/l MgCl (pH 7.4), supplemented with 0.1% (w/v) bovine serum albumin. […] (^3 H)-2-D-Ala-deltorphin II was used as the radioactive ligand. The proportion of non-specific binding was determined in the presence of 10 mmoles/l naloxon.
The compounds according to the invention were added to further batches in series of concentrations and the displacement of the radioactive ligand from its specific binding site was determined. The respective triple batches were incubated for 90 minutes at 37° C. and were subsequently harvested by means of filtration through glass fibre filters (GF/B) for the determination of the radioactive ligand bound to the membrane homogenate. The radioactivity of the glass fibre filter discs was measured in a β-counter after adding a scintillator.
The affinity of the compounds according to the invention for the δ-opiate receptor was calculated as the IC50 according to the law of mass action by means of nonlinear regression. The K values in Table 1 are given as the mean value±the standard deviation from three mutually independent tests.

cancer patients = settings: intrathecal, cancer patients on whom morphine no longer had an analgesic effect; cited from earlier work
[1] = 90 minutes at 37° C., pH 7.4, mean value ± standard deviation from three independent tests, read-out: δ-opiate receptor binding Ki
[2] = meaning of the second figure not stated, read-out: δ-opiate receptor binding Ki, second unlabelled figure printed behind the mean ± standard deviation

For `CN(C)CC1=C(c2cccc(O)c2)c2ccccc2[S+]([O-])CC1` (racemic) [Example 3, 3-(4-dimethylaminomethyl-1-oxo-2,3-dihydro-1H-1λ^4-benzo[b]thiepin-5-yl)-phenol hydrochloride], which Ki (δ-opiate receptor; [1]) is on record?
The Ki was 2.1 ± 0.13 nM.

Which Ki (δ-opiate receptor; [1]) does the source give for `CN(C)CC1=C(c2cccc(O)c2)c2ccccc2SCC1` [Example 1, 3-(4-dimethylaminomethyl-2,3-dihydro-benzo[b]thiepin-5-yl)-phenol hydrochloride] here?
The Ki was 10.2 ± 4.5 nM.

For `CN(C)CC1=C(c2cccc(O)c2)c2ccc3ccccc3c2OC1` [Example 2b, 3-(3-dimethylaminomethyl-2H-benzo[b]chromen-4-yl-phenol hydrochloride], which Ki (δ-opiate receptor; [1]) is on record?
The Ki was 348 ± 65 nM.

For `CN(C)CC1=C(c2cccc(O)c2)c2ccc3ccccc3c2SC1` [Example 2c, 3-(2-dimethylaminomethyl-3H-4-thiaphenanthren-1-yl)-phenol hydrochloride], which Ki (δ-opiate receptor; [1]) is on record?
Its Ki is 137 ± 13 nM.

With `CN(C)CC1=C(c2cccc(O)c2)c2ccc3c(c2OC1)OCCO3` [Example 2d, 3-(7-dimethylaminomethyl-2,3-dihydro-6H-1,4,5,-trioxa-phenanthren-8-yl)-phenol hydrochloride] as the compound, how does the Ki (δ-opiate receptor; [1]) read?
Its Ki is 18.4 ± 1.6 nM.

With `CN(C)CC1=C(c2cccc(O)c2)c2ccccc2OCC1` [Example 2e, 3-(4-dimethylaminomethyl-2,3-dihydro-benzo[b]oxepin-5-yl)-phenol hydrochloride] as the compound, how does the Ki (δ-opiate receptor; [1]) read?
Its Ki is 8.5 ± 3 nM.

Which Ki (δ-opiate receptor; [1]) does the source give for `COc1ccc2c(c1)OCCC(CN(C)C)=C2c1cccc(O)c1` [Example 2g, 3-(4-dimethylaminomethyl-8-methoxy-2,3-dihydrobenzo[b]oxepin-5-yl)-phenol hydrochloride] here?
The Ki was 6.19 nM.

What about the Ki (δ-opiate receptor; [2]) of the same compound?
The Ki was 6.01 nM.

With `COc1ccc2c(c1)SCCC(CN(C)C)=C2c1cccc(O)c1` [Example 2h, 3-(4-dimethylaminomethyl-8-methoxy-2,3-dihydrobenzo[b]thiepin-5-yl)-phenolhydrochloride] as the compound, how does the Ki (δ-opiate receptor; [1]) read?
The Ki was 2.67 nM.

And the Ki (δ-opiate receptor; [2])?
The Ki was 1.76 nM.

For `CN(C)CC1=C(c2cccc(O)c2)c2ccccc2SC1` [Example 5, 3-(3-dimethylaminomethyl-2H-thiochromen-4-yl)-phenol hydrochloride], which Ki (δ-opiate receptor; [1]) is on record?
Its Ki is 68.2 ± 10.1 nM.

Which Ki (δ-opiate receptor; [1]) does the source give for `CN(C)CC1=C(c2cccc(O)c2)c2ccccc2OC1` [Example 7, 3-(3-dimethylaminomethyl-2H-chromen-4-yl)-phenol hydrochloride] here?
The Ki was 68.4 ± 8.4 nM.

Which Ki (δ-opiate receptor; [1]) does the source give for `CN(C)CC1=C(c2cccc(O)c2)c2cc(O)ccc2OC1(C)C` [Example 8, 3-dimethylaminomethyl-4-(3-hydroxy-phenyl)-2,2-di-methyl-2H-chromen-6-ol hydrochloride] here?
Its Ki is 393 ± 46 nM.

For `COc1ccc2c(c1)[S+]([O-])CCC(CN(C)C)=C2c1cccc(O)c1` (centres unmarked) [Example 9a, 3-(4-dimethylaminomethyl-8-methoxy-1-oxo-2,3-dihydro-1H-1-2-4-benzo[b]thiepin-5-yl)-phenol hydrochloride], which Ki (δ-opiate receptor; [1]) is on record?
The Ki was 1.75 nM.

What does the source list for `CN(C)CC1=C(c2cccc(O)c2)c2ccc(O)cc2SCC1` [Example 11b, 4-dimethylaminomethyl-5-(3-hydroxy-phenyl)-2,3-dihydro-benzo[b]thiepin-8-ol hydrochloride]?
Ki (δ-opiate receptor; [1]): 6.43 nM; Ki (δ-opiate receptor; [2]): 6.71 nM

With “D-alanine^2 -D-leucine^5 enkeplialin [DADL]” as the compound, how does the analgesic effect (cancer patients) read?
Its analgesic effect is “long-lasting analgesic effect”.
